Columns and labels:
[1] = target: T1, human CXCR2 (Homo sapiens, UniProt P25025); test: human CXCR2 calcium flux activity (FLIPR, HEK293 cells stably expressing human CXCR2, IL-8 stimulation); format: cell-based; settings: HEK293 cells stably expressing human CXCR2, EC80 human IL-8; read-out: CXCR2 inhibitory activity, IC50
T1 construct: expressed in transfected cells; host or cells: HEK293
T1 sequence (P25025 1-360): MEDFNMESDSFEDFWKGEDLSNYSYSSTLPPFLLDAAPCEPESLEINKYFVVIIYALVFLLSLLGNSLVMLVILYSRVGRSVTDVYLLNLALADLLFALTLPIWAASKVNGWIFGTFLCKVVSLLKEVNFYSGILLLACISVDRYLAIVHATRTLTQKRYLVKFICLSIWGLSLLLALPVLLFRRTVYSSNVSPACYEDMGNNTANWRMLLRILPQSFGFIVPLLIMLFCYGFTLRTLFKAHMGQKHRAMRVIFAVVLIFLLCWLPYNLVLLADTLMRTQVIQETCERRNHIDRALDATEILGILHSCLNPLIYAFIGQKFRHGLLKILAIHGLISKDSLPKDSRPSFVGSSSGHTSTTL
Method: The activity of the compounds was evaluated using HEK293 cells stably expressing human CXCR2 via the FLIPR platform. A 384-well black cell culture plate (Greiner, 781946) was used, with a seeding density of 20,000 cells/well, and incubated overnight at 37°C in a 5% CO2 incubator. The culture medium in the cell plate wells was removed, and 20 µL of Fluo-4 Direct™ Calcium Assay Buffer (Invitrogen, F10471, Component C), 20 µL of 2× Fluo-4 Direct™ Calcium Assay Reagent (Invitrogen, F10471, Component A) working solution, and 10 µL of 6× test compound working solution were sequentially added to each well. The cell plate was incubated in a 37 °C, 5% CO2 incubator for 50 min, followed by a 10 min incubation at room temperature. Additionally, a 6×EC80 human IL-8 (Sigma, SRP3311) working solution was prepared. After the incubation was completed, 10 µL/well of the 6×EC80 human IL-8 working solution was transferred to the corresponding cell wells using a FLIPR instrument, and the fluorescence signal changes at an excitation wavelength of 494 nm and an emission wavelength of 516 nm were recorded over 130 s. The difference between the maximum fluorescence signal (RFUMax) and the minimum fluorescence signal (RFUMin) was used as the output signal. The compound inhibition rate and the log value of the compound concentration were calculated, and a four-parameter fitting analysis was performed using GraphPad Prism 8 software to obtain the IC50 value of the test compound. Table 1. Inhibitory activity data of compounds against CCR6 and CXCR2

[2] = target: T2, human CCR6 (Homo sapiens, UniProt P51684); test: human CCR6 calcium flux activity (FLIPR, HEK293 cells stably expressing human CCR6, CCL20 stimulation); format: cell-based; settings: for IC50: HEK293 cells stably expressing human CCR6, EC80 human MIP-3 alpha/CCL20, read-out: CCR6 inhibitory activity, IC50; for CCR6 selectivity: ratio of CXCR2 IC50 to CCR6 IC50
T2 construct: expressed in transfected cells; host or cells: HEK293
T2 sequence (P51684 1-374): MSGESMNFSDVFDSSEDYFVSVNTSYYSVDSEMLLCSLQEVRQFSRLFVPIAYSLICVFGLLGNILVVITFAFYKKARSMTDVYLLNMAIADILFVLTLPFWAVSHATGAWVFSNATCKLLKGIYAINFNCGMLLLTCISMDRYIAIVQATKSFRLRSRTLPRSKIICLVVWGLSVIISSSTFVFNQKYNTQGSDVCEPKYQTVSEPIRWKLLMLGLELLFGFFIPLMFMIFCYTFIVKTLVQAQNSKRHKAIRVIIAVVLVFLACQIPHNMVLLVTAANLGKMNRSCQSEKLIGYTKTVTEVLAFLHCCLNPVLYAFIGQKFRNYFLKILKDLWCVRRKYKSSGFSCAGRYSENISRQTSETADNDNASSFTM
Outline: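 Read-out is the RFUMax−RFUMin calcium signal (494/516 nm, 90 s) after EC80 CCL20 addition, fitted four-parameter for IC50. Before agonist, Fluo-4 Direct-loaded cells sat with compound 50 min at 37 °C plus 10 min at room temperature.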

Compound | IC50 [1] | IC50 [2] | CCR6 selectivity [2]
CC#C[C@H](Nc1c(Nc2ccnc(C(=O)N(C)C)c2O)c(=O)c1=O)C1(C)CCCC1 [compound 113, (R)-3-hydroxy-N, N-dimethyl-4-((2-((1-(1-methylcyclopentyl)but-2-yn-1-yl)amino)-3,4-dioxocyclobut-1-en-1-yl)amino)picolinamide] | 1480 nM | 49.8 nM | 29.7
CN(C)C(=O)c1nccc(Nc2c(N[C@@H](C#CC3CC3)C3(C)CCCC3)c(=O)c2=O)c1O [compound 115, (R)-4-((2-((3-cyclopropyl-1-(1-methylcyclopentyl)prop-2-yn-1-yl)amino)-3,4-dioxocyclobut-1-en-1-yl)amino)-3-hydroxy-N,N-dimethylpicolinamide] | 527 nM | 47.6 nM | 11.1
Cc1cc(F)cnc1[C@H](Nc1c(Nc2ccnc(C(=O)N(C)C)c2O)c(=O)c1=O)[C@]1(C)CC(F)(F)CO1 [093A, 4-((2-(((S)-((S)-4,4-difluoro-2-methyltetrahydrofuran-2-yl)(5-fluoro-3-methylpyridin-2-yl)methyl)amino)-3,4-dioxocyclobut-1-en-1-yl)amino)-3-hydroxy-N,N-dimethylpicolinamide] | > 100000 nM | 17.1 nM | > 5848.0
CN(C)C(=O)c1nccc(Nc2c(N[C@@H](c3ccc(F)cn3)C3(C)CCCC3)c(=O)c2=O)c1O [compound 005, (R)-4-((2-(((5-fluoropyridin-2-yl)(1-methylcyclopentyl)methyl)amino)-3,4-dioxocyclobut-1-en-1-yl)amino)-3-hydroxy-N,N-dimethylpicolinamide] | 1250 nM | 10.9 nM | 115.0
CN(C)C(=O)c1nccc(Nc2c(N[C@@H](c3cccc(Cl)n3)C3(C)CCCC3)c(=O)c2=O)c1O [compound 003, (R)-4-((2-(((6-chloropyridin-2-yl)(1-methylcyclopentyl)methyl)amino)-3,4-dioxocyclobut-1-en-1-yl)amino)-3-hydroxy-N,N-dimethylpicolinamide] | 2210 nM | 22.1 nM | 100.0
CN(C)C(=O)c1nccc(Nc2c(N[C@@H](C#CC3CCC3)[C@]3(C)CC(F)(F)CO3)c(=O)c2=O)c1O (single isomer, unassigned) [110A] | 297 nM | 9.3 nM | 32.0
CC#C[C@H](Nc1c(Nc2ccc(Cl)c(C(=O)N(C)C)c2O)c(=O)c1=O)C1(C)CCCC1 [compound 114, (R)-6-chloro-2-hydroxy-N, N-dimethyl-3-((2-((1-(1-methylcyclopentyl)but-2-yn-1-yl)amino)-3,4-dioxocyclobut-1-en-1-yl)amino)benzamide] | 1450 nM | 55.3 nM | 26.2
CN(C)C(=O)c1nccc(Nc2c(N[C@@H](c3cccc(CF)n3)C3(C)CCCC3)c(=O)c2=O)c1O [compound 108, (R)-4-((2-(((6-(fluoromethyl)pyridin-2-yl)(1-methylcyclopentyl)methyl)amino)-3,4-dioxocyclobut-1-en-1-yl)amino)-3-hydroxy-N,N-dimethylpicolinamide] | 740 nM | 3.9 nM | 189.6
CN(C)C(=O)c1nccc(Nc2c(N[C@@H](c3ncc(F)cc3F)C3(C)CCCC3)c(=O)c2=O)c1O [compound 009, (R)-4-((2-(((3,5-difluoropyridin-2-yl)(1-methylcyclopentyl)methyl)amino)-3,4-dioxocyclobut-1-en-1-yl)amino)-3-hydroxy-N,N-dimethylpicolinamide] | 2430 nM | 8 nM | 303.4
CN(C)C(=O)c1nccc(Nc2c(N[C@@H](c3nc(Cl)ccc3F)[C@@]3(C)CC(F)(F)CO3)c(=O)c2=O)c1O [068B, 4-((2-(((S)-(6-chloro-3-fluoropyridin-2-yl)((R)-4,4-difluoro-2-methyltetrahydrofuran-2-yl)methyl)amino)-3,4-dioxocyclobut-1-en-1-yl)amino)-3-hydroxy-N,N-dimethylpicolinamide] | 7630 nM | 5.3 nM | 1440.2
Cc1cccnc1[C@H](Nc1c(Nc2ccc(Cl)c(C(=O)N(C)C)c2O)c(=O)c1=O)C1(C)CCCC1 [compound 063, (R)-6-chloro-2-hydroxy-N,N-dimethyl-3-((2-(((1-methylcyclopentyl)(3-methylpyridin-2-yl)methyl)amino)-3,4-dioxocyclobut-1-en-1-yl)amino)benzamide] | 15300 nM | 11.7 nM | 1310.8

— patent EP4703354A1, “COMPOUND AS CCR6 ANTAGONIST, AND PHARMACEUTICAL COMPOSITION AND USE THEREOF” (Wuhan Createrna Science and Technology Co.,Ltd., priority 2023, dated 2024)
